Measured values reported in patent publication US20150037399A1, “NOVEL USE OF PIPOXOLAN AND ITS PHARMACEUTICAL COMPOSITION” (China Medical University, priority 2013, published 2015).

Key:
[1] = tested on: MMP-2; experiment: Western blot of MMP-2 in PDGF-BB-stimulated VSMCs; assay type: cell-based
Method: (§1) The role of matrix metalloproteinase-2/9 (MMP-2/9) and the Ras/MEK/ERK signaling pathways were used to evaluate the effect of pipoxolan on VSMCs migration. The protein expression levels were determined by Western blot analysis. Each vertical bars represented mean±S.E. **p<0.01 and ***p<0.001 compared with control group (n=6 in each group).

[2] = tested on: MEK; experiment: Western blot of MEK in PDGF-BB-stimulated VSMCs; assay type: cell-based
Method: as §1

[3] = tested on: carotid-ligation induced intimal hyperplasia; experiment: Carotid ligation model, intima/media ratio (hematoxylin-eosin staining); assay type: in vivo, ICR mice; settings: mice, vs control group
Method: Male ICR mice, weighing 20 to 25 g, were used as a carotidligation model. Fifteen mice were randomly assigned to 3 treatment groups, five mice for each group. All mice were fasted overnight with free access to water, then anesthetized with zoletil® (25 mg/kg i.p.). Carotid ligation was performed by a midline neck incision and the left common carotid artery exposed. The carotid artery was completely ligated just proximal to the carotid bifurcation, and the right carotid artery served as a non-injured control artery. The incision was closed after ligation, and the animals were allowed to recover. On the day of carotid ligation, mice were randomized into 3 treatment groups and anesthetized as described. Group 1 mice were treated with saline and groups 2 and 3 treated with pipoxolan (10 mg/kg and 30 mg/kg, respectively). Subsequent pipoxolan and saline treatments were given by gastric gavage on the second day after carotid ligation and once daily for 28 days. […] Images were digitized and analyzed with Image-Pro software. The areas of the lumen, internal elastic lamina (IEL), and external elastic lamina (EEL) were determined by computerized planimetry. The intima area was calculated by subtracting the luminal from the IEL area, and media area was determined by subtracting the IEL area from the EEL area. The ratio of intima to media area (I/M ratio) was calculated and analyzed. […]

In the case of Cl.O=C1OC(CCN2CCCCC2)OC1(c1ccccc1)c1ccccc1 (stereo not shown) [pipoxolan, 5,5-diphenyl-2-(2-piperidin-1-ylethyl)-1,3-dioxolan-4-one hydrochloride], the “reduction of MMP-2 protein level” value ([1]; 10 μM) is reported as 12.4%, the “reduction of MMP-2 protein level” value ([1]; 15 μM) is reported as 24.4% and the “reduction of MEK protein level” value ([2]; 5 μM) is reported as 21.67%. The “reduction of MEK protein level” value ([2]; 10 μM) was 21%, the “reduction of MEK protein level” value ([2]; 15 μM) was 26.67% and the “percent reduction of I/M ratio (intima/media)” value ([3]; 10 mg/kg p.o. once daily for 28 days after carotid ligation) was 24.21%. For the same molecule, the “percent reduction of I/M ratio (intima/media)” value ([3]; 30 mg/kg p.o. once daily for 28 days after carotid ligation) was 47.20%.
